Data reported in article PMC8963254, “Effects of Lysine N-ζ-Methylation in Ultrashort Tetrabasic Lipopeptides (UTBLPs) on the Potentiation of Rifampicin, Novobiocin, and Niclosamide in Gram-Negative Bacteria” (Antibiotics, 2022).
Values after ≈ are worked out from the molar mass of the structure shown. Values joined by “and” are separate entries in the source; they are usually repeats but may differ in a detail not shown here. Equal entries are not always repeated. Where two headings read alike, the source gives them in different places.

Columns and labels:
[1] = system: P. aeruginosa PA259-96196; assay type: cell-based, Pseudomonas aeruginosa; details: novobiocin alone
Description: (§1) The synergy of the UTBLPs with various antibiotics was assessed using checkerboard assay as previously described. Briefly, the combination of antibiotic and OMP at varying concentrations were incubated with bacterial inoculum (5 × 10^5 CFU/mL final concentration) at 37 °C for 18 h. Growth in the form of turbidity was confirmed using an EMax Plus microplate reader (Molecular Devices, Union City, CA, USA) at 590 nm. Fractional inhibitory concentration index (FICI) was used to evaluate the interaction between the antibiotic and the OMP. FICI is the sum of the FIC of the antibiotic and the FIC of the OMP. The FIC value is calculated by dividing the MIC of the agents in combination by the MIC of the agent alone. FICI ≤ 0.5 is synergistic, 0.5 < x ≤ 4 is additive, and >4 is antagonistic.

[2] = system: P. aeruginosa PA262-101856; assay type: cell-based, Pseudomonas aeruginosa; details: novobiocin alone
Description: as §1

P. aeruginosa PAO1 = assay type: cell-based, Pseudomonas aeruginosa
Description: as §1

A. baumannii 92247 = assay type: cell-based, Acinetobacter baumannii; details: novobiocin alone
Description: as §1

A. baumannii AB027 [3] = assay type: cell-based, Acinetobacter baumannii; details: novobiocin alone
Description: as §1

E. coli 94393 [4] = assay type: cell-based, Escherichia coli; details: novobiocin alone
Description: as §1

E. coli 94474 [5] = assay type: cell-based, Escherichia coli; details: novobiocin alone
Description: as §1

E. coli ATCC 25922 = assay type: cell-based, Escherichia coli
Description: as §1

E. cloacae 118564 [6] = assay type: cell-based, Enterobacter cloacae; details: novobiocin alone
Description: as §1

[7] = system: P. aeruginosa PA259-96196; experiment: microbe, parasite or virus in culture; assay type: cell-based, Pseudomonas aeruginosa; details: Pseudomonas aeruginosa, PA25996196, 18 h; P. aeruginosa 259-96196; read-out: MICs of various antibiotics
Description: (§2) The in vitro antibacterial activity of the UTBLPs was assessed against wild-type and clinically isolated bacterial strains. To obtain the MIC of the compounds, the microbroth dilution susceptibility assay was performed according to the Clinical and Laboratory Standards Institute (CLSI, Wayne, PA, USA) guidelines and as previously described. Briefly, the compounds at varying concentrations were incubated with bacterial inoculum (5 × 10^5 CFU/mL final concentration) at 37 °C for 18 h. Growth in the form of turbidity was confirmed using an EMax Plus microplate reader (Molecular Devices, San Jose, CA, USA) at 590 nm.

[8] = system: P. aeruginosa PA262-101856; experiment: microbe, parasite or virus in culture; assay type: cell-based, Pseudomonas aeruginosa; details: Pseudomonas aeruginosa, PA262101856, 18 h; P. aeruginosa 262-101856; read-out: MICs of various antibiotics
Description: as §2

E. coli 94393 [9] = experiment: microbe, parasite or virus in culture; assay type: cell-based, Escherichia coli; details: Escherichia coli, 18 h; E. coli 94393 (mcr-1 +); read-out: MICs of various antibiotics
Description: as §2

E. coli 94474 [10] = experiment: microbe, parasite or virus in culture; assay type: cell-based, Escherichia coli; details: Escherichia coli, 18 h; E. coli 94474 (mcr-1 +); read-out: MICs of various antibiotics
Description: as §2

E. cloacae 118564 [11] = experiment: microbe, parasite or virus in culture; assay type: cell-based, Enterobacter cloacae; details: Enterobacter cloacae, 18 h; E. cloacae 118564; read-out: MICs of various antibiotics
Description: as §2

K. pneumoniae 113250 = experiment: microbe, parasite or virus in culture; assay type: cell-based, Klebsiella pneumoniae; details: Klebsiella pneumoniae, 18 h; K. pneumoniae 113250; read-out: MICs of various antibiotics
Description: as §2

A. baumannii AB027 [12] = experiment: microbe, parasite or virus in culture; assay type: cell-based, Acinetobacter baumannii; details: Acinetobacter baumannii, 18 h; A. baumannii AB027; read-out: MICs of various antibiotics
Description: as §2

A. baumannii ATCC 17978 = assay type: cell-based, Acinetobacter baumannii
Description: as §1

MRSA ATCC 33592 = assay type: cell-based, Staphylococcus aureus; details: chloramphenicol alone
Description: as §1

S. aureus ATCC 29213 = assay type: cell-based, Staphylococcus aureus; details: chloramphenicol alone
Description: as §1

MRSE 61589 = assay type: cell-based, Staphylococcus epidermidis; details: chloramphenicol alone
Description: as §1

MSSE 81388 = assay type: cell-based, Staphylococcus epidermidis; details: chloramphenicol alone
Description: as §1

E. faecalis ATCC 29212 = assay type: cell-based, Enterococcus faecalis; details: chloramphenicol alone
Description: as §1

E. faecium ATCC 27270 = assay type: cell-based, Enterococcus faecium; details: chloramphenicol alone
Description: as §1

| MIC [7] | MIC [8] | MIC (E. coli 94393 [9]) | MIC (E. coli 94474 [10]) | MIC (E. cloacae 118564 [11]) | MIC (K. pneumoniae 113250) | MIC (A. baumannii AB027 [12]) | SMILES | further results |
| --- | --- | --- | --- | --- | --- | --- | --- | --- |
|  |  |  |  |  |  |  | CO[C@@H]1[C@@H](OC(N)=O)[C@@H](O)[C@H](Oc2ccc3c(O)c(NC(=O)c4ccc(O)c(CC=C(C)C)c4)c(=O)oc3c2C)OC1(C)C [Novobiocin, novobiocin] | MICantibiotic [1]: 2048 µg/mL and 1024 µg/mL; MICantibiotic [2]: 1024 µg/mL and 2048 µg/mL and > 1024 µg/mL; MICantibiotic (P. aeruginosa PAO1; novobiocin alone): 512 µg/mL and 1024 µg/mL; MICantibiotic (A. baumannii 92247): 2 µg/mL and 4 µg/mL; MICantibiotic (A. baumannii AB027 [3]): 8 µg/mL and 16 µg/mL; MICantibiotic (E. coli 94393 [4]): 128 µg/mL and 64 µg/mL; MICantibiotic (E. coli 94474 [5]): 256 µg/mL and 128 µg/mL; MICantibiotic (E. coli ATCC 25922; novobiocin alone): 32 µg/mL and 64 µg/mL; MICantibiotic (E. cloacae 118564 [6]): 256 µg/mL |
| 512 µg/mL (≈ 937 µM) | 16 µg/mL (≈ 29.3 µM) | ≤ 0.25 µg/mL | 0.5 µg/mL (≈ 0.915 µM) | 0.5 µg/mL (≈ 0.915 µM) | 0.5 µg/mL (≈ 0.915 µM) |  | CC(C)(O/N=C(\C(=O)N[C@@H]1C(=O)N2C(C(=O)[O-])=C(C[n+]3ccccc3)CS[C@H]12)c1csc(N)n1)C(=O)O [CAZ, ceftazidime] |  |
| 1020 µg/mL (≈ 3170 µM) | 2050 µg/mL (≈ 6340 µM) | 4 µg/mL (≈ 12.4 µM) | 4 µg/mL (≈ 12.4 µM) |  | 4 µg/mL (≈ 12.4 µM) | 128 µg/mL (≈ 396 µM) | O=C(N[C@H](CO)[C@H](O)c1ccc([N+](=O)[O-])cc1)C(Cl)Cl [Chloramphenicol, chloramphenicol, reference compound] | MICantibiotic (P. aeruginosa PAO1; chloramphenicol alone): 32 µg/mL and 16 µg/mL; MICantibiotic (A. baumannii ATCC 17978; chloramphenicol alone): 128 µg/mL and 64 µg/mL; MICchloramphenicol (MRSA ATCC 33592): 64 µg/mL; MICchloramphenicol (S. aureus ATCC 29213): 8 µg/mL and 16 µg/mL; MICchloramphenicol (MRSE 61589): 8 µg/mL and 16 µg/mL; MICchloramphenicol (MSSE 81388): 4 µg/mL and 8 µg/mL; MICchloramphenicol (E. faecalis ATCC 29212): 4 µg/mL and 8 µg/mL; MICchloramphenicol (E. faecium ATCC 27270): 8 µg/mL and 4 µg/mL |
| > 64 µg/mL | 64 µg/mL (≈ 115 µM) |  |  |  |  |  | CO/N=C(\C(=O)N[C@@H]1C(=O)N2C(C(=O)O)=C(CSc3nc(=O)c(=O)[nH]n3C)CS[C@H]12)c1csc(N)n1 [CTR, ceftriaxone] |  |
| > 32 µg/mL | > 32 µg/mL | ≤ 0.5 µg/mL | 16 µg/mL (≈ 33.5 µM) | 1 µg/mL (≈ 2.09 µM) | ≤ 0.5 µg/mL | 32 µg/mL (≈ 67 µM) | CNC(C)C1CCC(N)C(OC2C(N)CC(N)C(OC3OCC(C)(O)C(NC)C3O)C2O)O1 (stereo not drawn) [GEN, gentamicin] |  |
| > 1020 µg/mL | 16 µg/mL (≈ 38 µM) |  |  |  |  |  | C[C@@H](O)[C@H]1C(=O)N2C(C(=O)O)=C(S[C@@H]3CN[C@H](CNS(N)(=O)=O)C3)[C@H](C)[C@H]12 [DOR, doripenem] |  |
|  |  |  |  |  |  |  | O=C(Nc1ccc([N+](=O)[O-])cc1Cl)c1cc(Cl)ccc1O [Niclosamide, niclosamide] | MICantibiotic (P. aeruginosa PAO1; niclosamide alone): 1024 µg/mL; MICantibiotic (A. baumannii ATCC 17978; niclosamide alone): 1024 µg/mL and > 1024 µg/mL and 512 µg/mL; MICantibiotic (E. coli ATCC 25922; niclosamide alone): > 128 µg/mL and > 256 µg/mL |
| > 32 µg/mL | > 32 µg/mL | ≤ 0.03 µg/mL | ≤ 0.03 µg/mL |  | ≤ 0.03 µg/mL |  | C[C@@H](O)[C@H]1C(=O)N2C(C(=O)O)=C(S[C@@H]3CN[C@H](C(=O)Nc4cccc(C(=O)O)c4)C3)[C@H](C)[C@H]12 [ETP, ertapenem] |  |
| 2050 µg/mL (≈ 4500 µM) | 128 µg/mL (≈ 281 µM) |  |  |  |  | > 256 µg/mL | CO/N=C(\C(=O)N[C@@H]1C(=O)N2C(C(=O)O)=C(COC(C)=O)CS[C@H]12)c1csc(N)n1 [CTX, cefotaxime] |  |
| 32 µg/mL (≈ 72 µM) | 1020 µg/mL (≈ 2300 µM) | 4 µg/mL (≈ 9 µM) | > 32 µg/mL | 4 µg/mL (≈ 9 µM) | 2 µg/mL (≈ 4.5 µM) |  | C[C@H]1c2cccc(O)c2C(=O)C2=C(O)[C@]3(O)C(=O)C(C(N)=O)=C(O)[C@@H](N(C)C)[C@@H]3[C@@H](O)[C@@H]21 [DOX, doxycycline] |  |
